Here are results for seven compounds from patent publication US12577219B2, “Macrolide brefeldin a ester derivatives and use thereof” (OCEAN UNIVERSITY OF CHINA, priority 2019, dated 2026).

Broadly, the IC50 is the midpoint of a concentration-inhibition curve. A low value points to inhibition by little substance. By solubility is commonly meant the dissolved amount per volume that the medium holds.

The subject of series [1] is Human cervical cancer Hela cells. Description: Cell proliferation assay (CCK-8). Particulars: 72 h. The format is cell-based. An excerpt:
(§1) CCK-8 method: The CCK-8 method is a highly sensitive, non-radioactive colorimetric assay for the determination of the number of viable cells in cell proliferation or cytotoxicity assays. The orange formazan dye produced by the bioreduction of CCK-8 by intracellular dehydrogenase is soluble in the cell culture medium, and the amount of formazan dye produced is proportional to the number of living cells. The kit used in this method is the tetrazolium salt-WST-8 (2-(2-methoxy-4-nitrophenyl)-3-(4-nitrophenyl)-5-(2,4-disulfophenyl)-2H-tetrazolium monosodium salt) developed by Dojindo Chemical Research Institute (Dojindo), which is capable of being reduced to a water-soluble formazan dye in the presence of the electronic carrier 1-Methoxy PMS.
(§2) Human cervical cancer Hela cells, pancreatic cancer PANC-1cells, esophageal cancer Eca-109 cells, human leukemia K562 cells, human lung cancer A549 cells, human liver cancer HepG2 cells, human gastric cancer MKN-45 cells, human breast cancer MCF7 cells were cultured in DMEM medium containing 10% FBS (fetal bovine serum), 100 U/mL penicillin and 100 μg/ml streptomycin. Hepatocellular carcinoma cells Bel-7402 were cultured in RPMI-1640 medium containing 10% FBS (fetal bovine serum), 100 U/ml penicillin and 100 μg/ml streptomycin. All cells were placed in a cell culture incubator at 37° C. with 5% CO2. Cells fluid was changed every 3-5 days, and after 80% cell fusion, trypsin digestion and passaging were performed to keep the cells in good logarithmic growth phase.
(§3) All the samples to be tested were dissolved in DMSO.
(§4) Cells in logarithmic growth phase were inoculated in 96-well plates with 5000 cells/well respectively, and after 24 h of incubation, samples were added (final concentrations as shown in the table), and biplicate wells were set up for each sample. The amount of solvent of DMSO was not higher than 2%. After 72 h, 10 μL of CCK-8 solution was added to each well and incubated for 1.5˜3 h at 37° C. The OD value at 450 nm was measured on an plate reader. Inhibition rate (%)=(1−[(OD450 dosed well−OD450 blank well)/(OD450 control well−OD450 blank well)])×100%
(§5) The fitted IC50 values were calculated using the log (inhibitor) vs. response—Variable slop analysis method in GraphPad Prism software.

Series [2] deals with human breast cancer MCF7 cells. Description: Cell proliferation assay (CCK-8). The format is cell-based. Particulars: MCF7, 72 h.
Excerpt: as §1, §2, §3, §4, §5

Series [3] concerns human gastric cancer MKN-45 cells. Description: Cell proliferation assay (CCK-8). The format is cell-based. Particulars: MKN-45, 72 h.
Excerpt: as §1, §2, §3, §4, §5

The subject of series [4] is human leukemia K562 cells. Description: Cell proliferation assay (CCK-8). The format is cell-based. Particulars: K562, 72 h.
Excerpt: as §1, §2, §3, §4, §5

In series [5] the test system is human liver cancer HepG2 cells. Description: Cell proliferation assay (CCK-8). Particulars: HepG2, 72 h. It counts as cell-based.
Excerpt: as §1, §2, §3, §4, §5

Series [6] concerns human lung cancer A549 cells. Description: Cell proliferation assay (CCK-8). It counts as cell-based. Particulars: A549, 72 h.
Excerpt: as §1, §2, §3, §4, §5

The subject of series [7] is esophageal cancer Eca-109 cells. Description: Cell proliferation assay (CCK-8). The format is cell-based, human. Particulars: Eca-109, 72 h.
Excerpt: as §1, §2, §3, §4, §5

Series [8] concerns pancreatic cancer PANC-1cells. Description: Cell proliferation assay (CCK-8). It counts as cell-based, human. Particulars: PANC-1, 72 h.
Excerpt: as §1, §2, §3, §4, §5

The nature of series [9]: Solubility test (shaker 37° C., 24 h, HPLC). Particulars: for solubility at 24 h: 37 °C, thermodynamic from solid.
Protocol: (§6) The term “solubility” refers to the mass of solute dissolved when a solid substance reaches saturation state in 100 g solvent at a certain temperature.
(§7) Methods: Excess BFA and the compounds disclosed herein were added to 10 mL of three solvents, methanol, acetone and 5% DMSO+95% H2O, respectively, and shaken on a shaker at 37° C. at 100 r/min for 24 h. After 24 h, the samples were centrifuged at 15,000 r/min for 15 min to remove the undissolved compounds. The supernatant was filtered using a 0.45 μm membrane filter. The supernatant was appropriately diluted with methanol and contents of the compounds were determined by HPLC method to calculate the solubility.
The nature of series [10]: physchem. Particulars: 37 °C, thermodynamic from solid, x ± s, n = 3.
Protocol: as §6, §7
Where [11] appears, read: 5% DMSO + 95% H2O, aqueous with cosolvent or surfactant or cyclodextrin.
[12] abbreviates: acetone, organic solvent or mixture.
[13] abbreviates: methanol, organic solvent or mixture.

In brackets after ≈: the same amount, converted by molar mass. A value given as a limit tells only on which side of the number the result lay.

On to `C[C@H]1CCC/C=C/[C@@H]2C[C@H](O)C[C@H]2[C@H](O)/C=C/C(=O)O1` [BFA, Brefeldin A], for which the IC50 in series [1] is 100 to 1000 nM; in series [2] it was less than 100 nM; in [3], 100 to 1000 nM; in series [4], 100 to 1000 nM; in series [5], 100 to 1000 nM; in [6] it was 100 to 1000 nM. Moreover, the IC50 in series [7] is 100 to 1000 nM; in series [8] it was less than 100 nM. In addition, the “Solubility, 5% DMSO + 95% H2O” value in [9] (5% DMSO + 95% H2O, 37° C., 24 h, x ± s, n = 3) is 85 ± 30 µg/mL. Also, the “Solubility, Acetone” value in [9] (acetone, 37° C., 24 h, x ± s, n = 3) stood at 3130 ± 1240 µg/mL (≈ 11.2 mM). The “Solubility, Methanol” value in series [9] (methanol, 37° C., 24 h, x ± s, n = 3) was 3130 ± 1240 µg/mL (≈ 11.2 mM).
For the compound `C[C@H]1CCC/C=C/[C@@H]2C[C@H](OC(=O)/C=C/c3ccccc3)C[C@H]2[C@H](OC(=O)/C=C/c2ccccc2)/C=C/C(=O)O1` [Compound C], the IC50 in series [1] (Homo sapiens), in series [2] (Homo sapiens), in series [3] (Homo sapiens), in series [4] (Homo sapiens), in [5] (Homo sapiens) and in series [6] (Homo sapiens) was 1000 to 10000 nM throughout. The IC50 in [7] (Homo sapiens) and in series [8] (Homo sapiens) was 1000 to 10000 nM each time. Moreover, the results for the solubility at 24 h in series [9] (setting [11]), in series [9] (setting [12]) and in [9] (setting [13]) were 100 ± 230 µg/mL, 5360 ± 3130 µg/mL (≈ 9.91 mM) and 5300 ± 2510 µg/mL (≈ 9.8 mM), respectively.
On to `C[C@H]1CCC/C=C/[C@@H]2C[C@H](OC(=O)/C=C/c3ccccc3)C[C@H]2[C@H](O)/C=C/C(=O)O1` [Compound A], for which the IC50 fell in the range of 1000 to 10000 nM in series [1] (Homo sapiens); 100 to 1000 nM in series [2] (Homo sapiens); 1000 to 10000 nM in series [3] (Homo sapiens); 100 to 1000 nM in series [4] (Homo sapiens); 1000 to 10000 nM in series [5] (Homo sapiens); 1000 to 10000 nM in series [6] (Homo sapiens). Further, the IC50 in series [7] (Homo sapiens) is 1000 to 10000 nM; in [8] (Homo sapiens) it was 100 to 1000 nM. Besides, the solubility at 24 h was 220 ± 130 µg/mL in [10] (aqueous with cosolvent or surfactant or cyclodextrin, 5% DMSO + 95% H2O); 9460 ± 1260 µg/mL (≈ 23 mM) in series [10] (organic solvent or mixture, Acetone); 9480 ± 1010 µg/mL (≈ 23.1 mM) in series [10] (organic solvent or mixture, Methanol).
`C[C@H]1CCC/C=C/[C@@H]2C[C@H](O)C[C@H]2[C@H](OC(=O)/C=C/c2ccc3c(c2)OCO3)/C=C/C(=O)O1` [Compound 9b, 4-O-((E)-3-(benzo[d][1,3]dioxa-5-yl)acrylic acid)acyl BFA]: the IC50 lay in the range of 1000 to 10000 nM in [1]; 100 to 1000 nM in series [2]; 100 to 1000 nM in series [3]; 100 to 1000 nM in series [4]; 1000 to 10000 nM in series [5]; 100 to 1000 nM in series [6]. Moreover, the IC50 in [7] was in the range of 1000 to 10000 nM; in [8] it was 100 to 1000 nM.
Take `COc1cccc2c1C(=O)c1c(O)c3c(c(O)c1C2=O)C[C@@](O)(C(=O)CO)C[C@@H]3O[C@H]1C[C@H](N)[C@H](O)[C@H](C)O1` [Adriamycin]: the concentration for half-maximal inhibition (IC50) was 100 to 1000 nM in [1] (Homo sapiens); 1000 to 10000 nM in [2] (Homo sapiens); 100 to 1000 nM in series [3] (Homo sapiens); 1000 to 10000 nM in [4] (Homo sapiens); greater than 10000 nM in series [5] (Homo sapiens); 100 to 1000 nM in series [6] (Homo sapiens). Besides, the concentration for half-maximal inhibition (IC50) is 100 to 1000 nM in series [7] (Homo sapiens) and less than 100 nM in series [8] (Homo sapiens).
For `C[C@H]1CCC/C=C/[C@@H]2C[C@H](OC(=O)/C=C/c3cnc4ccccc4c3)C[C@H]2[C@H](OC(=O)/C=C/c2cnc3ccccc3c2)/C=C/C(=O)O1` [Compound 17c], the IC50 in series [1] fell in the range of 1000 to 10000 nM; in series [2], 100 to 1000 nM; in series [3], 1000 to 10000 nM; in series [4], 100 to 1000 nM; in [5], 100 to 1000 nM; in [6] it was 1000 to 10000 nM. For the same compound, the figures for the IC50 in [7] and in [8] were 1000 to 10000 nM and 100 to 1000 nM, respectively.
In the case of `C[C@H]1CCC/C=C/[C@@H]2C[C@H](O)C[C@H]2[C@H](OC(=O)/C=C/c2ccccc2)/C=C/C(=O)O1` [Compound B], the IC50 in [1] (Homo sapiens) was 1000 to 10000 nM; in [2] (Homo sapiens), 100 to 1000 nM; in series [3] (Homo sapiens) it was 1000 to 10000 nM; in series [4] (Homo sapiens), 100 to 1000 nM; in series [5] (Homo sapiens), 1000 to 10000 nM; in [6] (Homo sapiens), 1000 to 10000 nM. The IC50 fell in the range of 1000 to 10000 nM in series [7] (Homo sapiens) and 100 to 1000 nM in [8] (Homo sapiens). For the same compound, the figures for the solubility at 24 h in [9] (setting [11]), in series [9] (setting [12]) and in series [9] (setting [13]) were 220 ± 160 µg/mL, 9480 ± 3230 µg/mL (≈ 23.1 mM) and 9410 ± 1510 µg/mL (≈ 22.9 mM), respectively.
